Source: paper PMC11666819, “Isolation, Structure Elucidation, and Bioactivity Evaluation of Two Alkaloids From Piper chaba H. Stem: A Traditional Medicinal Spice and Its Chemico‐Pharmacological Aspects” (Food Science & Nutrition, 2024)
Several values for one entry are separate records, joined by “and”; a condition that tells them apart may be missing. Identical values can stand only once.

Assays:
[1] = system: Bacillus cereus [clinical isolates]; assay: Disk diffusion test; assay type: cell-based
[2] = system: Bacillus megaterium [ATCC 25918]; assay: Disk diffusion test; assay type: cell-based; settings: for Zone of Inhibition: Bacillus megaterium, standards 30 μg/disk; for zone of inhibition at 100 µg/disc: Priestia megaterium, ATCC25918
[3] = system: Bacillus subtilis [ATCC6633]; assay: Disk diffusion test; assay type: cell-based; settings: for Zone of Inhibition: standards 30 μg/disk; for zone of inhibition at 100 µg/disc: ATCC6633
[4] = system: Staphylococcus aureus [ATCC25923]; assay: Disk diffusion test; assay type: cell-based; settings: for Zone of Inhibition: standards 30 μg/disk; for zone of inhibition at 100 µg/disc: ATCC25923
[5] = system: Sarcina lutea [clinical isolates]; assay: Disk diffusion test; assay type: cell-based; settings: for Zone of Inhibition: Sarcina lutea, standards 30 μg/disk; for zone of inhibition at 100 µg/disc: Micrococcus luteus
[6] = system: Escherichia coli [ATCC25922]; assay: Disk diffusion test; assay type: cell-based; settings: for Zone of Inhibition: standards 30 μg/disk; for zone of inhibition at 100 µg/disc: ATCC25922
[7] = system: Pseudomonas aeruginosa [ATCC27833]; assay: Disk diffusion test; assay type: cell-based; settings: for zone of inhibition at 100 µg/disc: ATCC27833
[8] = system: Salmonella paratyphi [clinical isolates]; assay: microbe, parasite or virus in culture; assay type: cell-based; settings: for Zone of Inhibition: Salmonella paratyphi, standards 30 μg/disk; for zone of inhibition at 100 µg/disc: Salmonella enterica, PARATYPHI
[9] = system: Salmonella typhi [clinical isolates]; assay: Disk diffusion test; assay type: cell-based; settings: for Zone of Inhibition: Salmonella typhi; for zone of inhibition at 100 µg/disc: Salmonella enterica, TYPHI
[10] = system: Shigella dysenteriae [clinical isolates]; assay: Disk diffusion test; assay type: cell-based; settings: for Zone of Inhibition: standards 30 μg/disk
[11] = system: Vibrio mimicus [clinical isolates]; assay: Disk diffusion test; assay type: cell-based; settings: for Zone of Inhibition: standards 30 μg/disk
[12] = system: Vibrio parahemolyticus [clinical isolates]; assay: Disk diffusion test; assay type: cell-based; settings: for Zone of Inhibition: Vibrio parahemolyticus, standards 30 μg/disk; for zone of inhibition at 100 µg/disc: Vibrio
[13] = system: castor oil‐induced diarrhea; assay: Castor oil‐induced diarrhea test; assay type: in vivo, Swiss albino mice; settings: mice; for Number of diarrheal feces: mean
Protocol: (§1) To carry out the in vivo experiment, Swiss albino mice aged between 4 and 5 weeks, of both genders, were obtained from the Animal Resource Branch of the International Centre for Diarrheal Diseases and Research, Bangladesh (ICDDR, B) (the size of the animal population, n = 5). The mice were housed in standard polypropylene cages with a 12‐h light–dark cycle. Additionally, optimal conditions such as a controlled room temperature of 24°C ± 2°C and a relative humidity of 60%–70% were upheld. They were provided with ICDDR, B‐formulated rodent food, and water ad libitum. The research protocol was approved by the Animal Ethics Committee of the State University of Bangladesh, Dhaka (2023‐01‐04/SUB/A‐ ERC/003) before initiating the study. Throughout the experiments, strict adherence to guidelines for the use and care of laboratory animals was ensured. Recognizing the sensitivity of mice to environmental variations, they were acclimatized to the experimental conditions for a minimum of 3–4 days before the commencement of the experiment. Furthermore, all ethical protocols and regulations were strictly adhered to during the design and execution of the research experiments. At the end of the experiment, an anesthesia overdose (Ketamine HCl [100 mg/kg] and Xylazine [7.5 mg/kg]) through the intraperitoneal route was given to the mice models followed by euthanasia, following the previously delineated protocols established by Zimmermann ([1983]) and Davis ([2001]) (Alam et al. [2021]; Davis [2001]; Zimmermann [1983]). All tests were carried out in abiding with the guidelines for the care and use of laboratory animals, as approved by the institutional ethical committee.
The antidiarrheal potential of the compounds Chabamide I and Chingchengenamide A isolated from P. chaba was scrutinized employing the castor oil‐induced method, as delineated by Shoba and Thomas ([2001]) with slight adjustments. In this investigation, mice were judiciously randomized into four cohorts, each consisting of six subjects. Before experimentation, the mice underwent an overnight fasting period with unrestricted access to water.
Group I, designated as the control, received vehicle solutions comprising distilled water with 1% Tween‐80. […] Groups III and IV, representing the test cohorts, received isolated phytochemicals individually at oral dosages of 10 and 20 mg/kg body weight, respectively. An additional 0.5 mL of castor oil was applied to all subjects 1 h after the initial application of test samples. Subsequently, individual mice were placed in enclosures with floors lined with transparent paper.
Throughout the observational timeframe, diverse parameters were meticulously monitored, encompassing the initiation of diarrhea, quantification of wet stools in terms of number and weight, and the cumulative number and weight of fecal output. The observation persisted until 4 h […] the subsequent application of castor oil, with the calculated mean values being designated as the definitive results.

[14] = system: acetic acid‐induced writhing; assay: Acetic acid‐induced writhing test; assay type: in vivo, Swiss albino mice; settings: mice; for Number of writhing: mean
Protocol: as §1
The analgesic efficacy of the isolated compounds, Chabamide I and Chingchengenamide A, was assessed utilizing the acetic acid‐induced writhing test, following the methodology outlined by Ahmad et al. ([2010]). […] Conversely, Groups III and IV received individual alkaloids at doses of 10 and 20 mg/kg; b.w, p.o., respectively. Subsequently, an intraperitoneal injection of acetic acid solution (0.6% v/v) was administered. The frequency of writhing responses was meticulously recorded at 5‐min intervals post‐acetic acid injection and monitored over 25 min.

[15] = system: eight tested human tumor cell lines; design: method as in Wang et al. [2014]; settings: ref Wang et al. [2014]; cited from earlier work

SMILES	Zone of Inhibition ([1]; standards 30 μg/disk)	Zone of Inhibition [2]	Zone of Inhibition [3]	Zone of Inhibition [4]	Zone of Inhibition [5]	Zone of Inhibition [6]	Zone of Inhibition ([7]; standards 30 μg/disk)	Zone of Inhibition [8]	Zone of Inhibition ([9]; standards 30 μg/disk)	Zone of Inhibition [10]	Zone of Inhibition [11]	Zone of Inhibition [12]	zone of inhibition at 100 µg/disc [1]	zone of inhibition at 100 µg/disc [2]	zone of inhibition at 100 µg/disc [3]	zone of inhibition at 100 µg/disc [4]	zone of inhibition at 100 µg/disc [5]	zone of inhibition at 100 µg/disc [6]	zone of inhibition at 100 µg/disc [7]	zone of inhibition at 100 µg/disc [8]	further results
CC1(C)S[C@@H]2[C@H](NC(=O)[C@H](N)c3ccc(O)cc3)C(=O)N2[C@H]1C(=O)O [Amoxicillin, amoxicillin, reference compound]	33 mm	29 mm	26 mm	36 mm	32 mm	37 mm	38 mm	32 mm	31 mm	30 mm	28 mm	35 mm	–	–	–	–	–	–	–	–	–
CC[C@H]1OC(=O)[C@H](C)[C@@H](O[C@H]2C[C@@](C)(OC)[C@@H](O)[C@H](C)O2)[C@H](C)[C@@H](O[C@@H]2O[C@H](C)C[C@H](N(C)C)[C@H]2O)[C@](C)(O)C[C@@H](C)CN(C)[C@H](C)[C@@H](O)[C@]1(C)O [Azithromycin, azithromycin, reference compound]	35 mm	33 mm	32 mm	39 mm	37 mm	39 mm	42 mm	32 mm	38 mm	38 mm	33 mm	40 mm	–	–	–	–	–	–	–	–	–
CC(C)CNC(=O)C1C(C(=O)N2CCCCC2)C=CC(c2ccc3c(c2)OCO3)C1c1ccc2c(c1)OCO2 (stereo not drawn) [Chabamide I]	–	–	–	–	–	–	–	–	–	–	–	–	20 mm	15 mm	11 mm	18 mm	16 mm	18 mm	21 mm	18 mm	Zone of Inhibition ([1]; 100 μg/disk): notable antimicrobial activity; Zone of Inhibition ([7]; 100 μg/disk): notable antimicrobial activity; zone of inhibition at 100 µg/disc [9]: 21 mm; Zone of Inhibition ([9]; 100 μg/disk): notable antimicrobial activity; zone of inhibition at 100 µg/disc [10]: 18 mm; zone of inhibition at 100 µg/disc [11]: 15 mm; zone of inhibition at 100 µg/disc [12]: 16 mm; % reduction of diarrhea ([13]; 10 mg/kg b.w., oral): 43.33%; Number of diarrheal feces ([13]; 10 mg/kg b.w., oral): 5.67; % reduction of diarrhea ([13]; 20 mg/kg b.w., oral): 46.67%; Number of diarrheal feces ([13]; 20 mg/kg b.w., oral): 5.33; % reduction of writhing ([14]; 10 mg/kg b.w., p.o.): 40.82%; Number of writhing ([14]; 10 mg/kg b.w., p.o.): 9.67; % reduction of writhing ([14]; 20 mg/kg b.w., p.o.): 53.06%; Number of writhing ([14]; 20 mg/kg b.w., p.o.): 7.67; inhibitory effectiveness against human tumor cell lines [15]: inhibitory effectiveness against at least one of eight tested human tumor cell lines
CC(C)CNC(=O)/C=C/C=C/CCc1ccc2c(c1)OCO2 [Chingchengenamide A]	–	–	–	–	–	–	–	–	–	–	–	–	17 mm	14 mm	13 mm	15 mm	16 mm	17 mm	21 mm	14 mm	zone of inhibition at 100 µg/disc [9]: 12 mm; zone of inhibition at 100 µg/disc [10]: 15 mm; zone of inhibition at 100 µg/disc [11]: 16 mm; zone of inhibition at 100 µg/disc [12]: 15 mm; % reduction of diarrhea ([13]; 10 mg/kg b.w., oral): 33.33%; Number of diarrheal feces ([13]; 10 mg/kg b.w., oral): 6.67; % reduction of diarrhea ([13]; 20 mg/kg b.w., oral): 40%; Number of diarrheal feces ([13]; 20 mg/kg b.w., oral): 6; % reduction of writhing ([14]; 10 mg/kg b.w., p.o.): 34.69%; Number of writhing ([14]; 10 mg/kg b.w., p.o.): 10.67; % reduction of writhing ([14]; 20 mg/kg b.w., p.o.): 42.86%; Number of writhing ([14]; 20 mg/kg b.w., p.o.): 9.33; inhibitory effectiveness against human tumor cell lines [15]: inhibitory effectiveness against at least one of eight tested human tumor cell lines
O=C(O)Cc1ccccc1Nc1c(Cl)cccc1Cl [Diclofenac Sodium, diclofenac sodium, reference compound]	–	–	–	–	–	–	–	–	–	–	–	–	–	–	–	–	–	–	–	–	% reduction of writhing ([14]; standard, 5 mg/kg b.w., 5 mg/kg): 80% and 77.55%; Number of writhing ([14]; standard, 5 mg/kg b.w.): 3.67
CN(C)C(=O)C(CCN1CCC(O)(c2ccc(Cl)cc2)CC1)(c1ccccc1)c1ccccc1 [Loperamide, loperamide, reference compound]	–	–	–	–	–	–	–	–	–	–	–	–	–	–	–	–	–	–	–	–	Number of diarrheal feces ([13]; standard, 5 mg/kg b.w.): 2
